target: p38 (Homo sapiens, UniProt Q16539); experiment: Protein Kinase Assay (33P incorporation from γ-[33P]ATP into GST-ATF-2); type: biochemical; details: 2 nM p38, preincubated 20 min at 30° C.; 10 uM cold ATP, 2 uM GST-ATF2, 70 min; read-out: ACT. (Activity), IC50 category in Protein Kinase Assay
Description: Protein Kinase Assay. The protein kinase activity of p38 was determined by measuring the incorporation of ^33P from γ-[^33P]ATP into the GST-ATF-2 substrate, amino acids 19-96 (Upstate, N.Y. USA). The reactions were carried out in a final volume of 50 μL of 24 mM Tris-HCl buffer, pH 7.5, containing 13 mM MgCl2, 12% Glycerol, 2% DMSO, 2 mM DTT, […] of γ-[^33P]ATP (1000 Ci/mmol; 1 Ci=37 GBq) (GE Healthcare, Piscataway, N.J.), 10 uM cold ATP (GE Healthcare, Piscataway, N.J.), and 2 uM GST-ATF2. Compounds were preincubated with 2 nM p38 for 20 min at 30° C.; the reactions were initiated by the addition of GST-ATF2 and ATP and incubated for 70 min at 30° C. before being stopped by the addition of 10 μL of 600 mM phosphoric acid. The phosphorylated substrate was captured on phosphocellulose 96-well plate (Millipore MAPHNOB 10), washed with 100 mM phosphoric acid, and counted in a BeckmenCoulter LS6500 liquid scintillation counter. […] (Activity).

Sequence of p38 (Q16539 whole entry, the tested form may be a part): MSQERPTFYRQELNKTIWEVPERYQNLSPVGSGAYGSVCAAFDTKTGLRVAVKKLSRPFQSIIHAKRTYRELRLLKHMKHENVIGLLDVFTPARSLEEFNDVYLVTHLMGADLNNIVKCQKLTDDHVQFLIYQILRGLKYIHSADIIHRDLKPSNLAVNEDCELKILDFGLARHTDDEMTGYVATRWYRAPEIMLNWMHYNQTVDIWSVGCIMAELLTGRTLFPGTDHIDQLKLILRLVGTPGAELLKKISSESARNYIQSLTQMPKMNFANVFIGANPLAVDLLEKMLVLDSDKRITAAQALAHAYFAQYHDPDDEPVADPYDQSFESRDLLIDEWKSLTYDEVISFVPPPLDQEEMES

| SMILES | IC50 [nM] |
| --- | --- |
| Cc1ccc(NC(=O)Nc2sc(C(C)(C)C)cc2C(=O)N2CCNC(=O)C2(C)C)cc1-c1ccc(N2CCOCC2)nc1 [1-(5-tert-butyl-3-(2,2-dimethyl-3-oxopiperazine-1-carbonyl)thiophen-2-yl)-3-(4-methyl-3-(6-morpholinopyridin-3-yl)phenyl)urea] | < 100 |
| CC(C)(C)c1cc(C(=O)N2CCNC(=O)C2(C)C)c(NC(=O)Nc2ccc(F)c(-c3ccc(OCCN4CCOCC4)nc3)c2)s1 [1-(5-tert-butyl-3-(2,2-dimethyl-3-oxopiperazine-1-carbonyl)thiophen-2-yl)-3-(4-fluoro-3-(6-(2-morpholinoethoxy)pyridin-3-yl)phenyl)urea] | < 100 |
| Cc1ccc(NC(=O)Nc2sc(C(C)(C)C)cc2C(=O)N2CCN(C)C(=O)C2(C)C)cc1-c1ccc(N2CCOCC2)nc1 [1-(5-tert-butyl-3-(2,2,4-trimethyl-3-oxopiperazine-1-carbonyl)thiophen-2-yl)-3-(4-methyl-3-(6-morpholinopyridin-3-yl)phenyl)urea] | < 100 |
| Cc1ccc(NC(=O)Nc2oc(C(C)(C)C)cc2C(=O)N2CCNC(=O)C2(C)C)cc1-c1ccncc1 [1-(5-tert-butyl-3-(2,2-dimethyl-3-oxopiperazine-1-carbonyl)furan-2-yl)-3-(4-methyl-3-(pyridin-4-yl)phenyl)urea] | < 100 |
| Cc1nnc(-c2ccc(-c3cc(NC(=O)Nc4sc(C(C)(C)C)nc4C(=O)N4CCN(C)C(=O)C4(C)C)ccc3C)cn2)o1 [1-(2-tert-butyl-4-(2,2,4-trimethyl-3-oxopiperazine-1-carbonyl)thiazol-5-yl)-3-(4-methyl-3-(6-(5-methyl-1,3,4-oxadiazol-2-yl)pyridin-3-yl)phenyl)urea] | < 100 |
| Cc1ccc(NC(=O)Nc2sc(C(C)(C)C)cc2C(=O)N2CCNC(=O)C2(C)C)cc1-c1ccc(OCCN(C)C)nc1 [1-(5-tert-butyl-3-(2,2-dimethyl-3-oxopiperazine-1-carbonyl)thiophen-2-yl)-3-(3-(6-(2-(dimethylamino)ethoxy)pyridin-3-yl)-4-methylphenyl)urea] | < 100 |
| Cc1ccc(NC(=O)Nc2sc(C(C)(C)C)cc2C(=O)N2CCN(CCN(C)C)C(=O)C2(C)C)cc1-c1cccnc1 [1-(5-tert-butyl-3-(4-(2-(dimethylamino)ethyl)-2,2-dimethyl-3-oxopiperazine-1-carbonyl)thiophen-2-yl)-3-(4-methyl-3-(pyridin-3-yl)phenyl)urea] | < 100 |
| Cc1c(NC(=O)Nc2sc(C(C)(C)C)cc2C(=O)N2CCNC(=O)C2(C)C)cccc1-c1ccc(N2CCOCC2)nc1 [1-(5-tert-butyl-3-(2,2-dimethyl-3-oxopiperazine-1-carbonyl)thiophen-2-yl)-3-(2-methyl-3-(6-morpholinopyridin-3-yl)phenyl)urea] | < 100 |
| Cc1ccc(NC(=O)Nc2sc(C(C)(C)C)cc2C(=O)N2CCNC(=O)C2(C)C)cc1C#N [1-(5-tert-butyl-3-(2,2-dimethyl-3-oxopiperazine-1-carbonyl)thiophen-2-yl)-3-(3-cyano-4-methylphenyl)urea] | < 100 |
| CC(=O)N1CCN(C(=O)c2cc(C(C)(C)C)sc2NC(=O)Nc2ccc(C)c(-c3cccnc3)c2)CC1 [1-(5-tert-butyl-3-(4-ethanoylpiperazine-1-carbonyl)thiophen-2-yl)-3-(4-methyl-3-(pyridin-3-yl)phenyl)urea] | < 100 |
| CCc1ccc(-c2cc(NC(=O)Nc3cc(C(C)(C)C)sc3C(=O)N3CCN(C)C(=O)C3(C)C)ccc2C)cn1 [1-(5-tert-butyl-2-(2,2,4-trimethyl-3-oxopiperazine-1-carbonyl)thiophen-3-yl)-3-(3-(6-ethylpyridin-3-yl)-4-methylphenyl)urea] | < 100 |
| CC(C)(C)c1cc(C(=O)N2CCNC(=O)C2(C)C)c(NC(=O)Nc2cccc(-c3ccc(OCCCN4CCOCC4)nc3)c2)s1 [1-(5-tert-butyl-3-(2,2-dimethyl-3-oxopiperazine-1-carbonyl)thiophen-2-yl)-3-(3-(6-(3-morpholinopropoxy)pyridin-3-yl)phenyl)urea] | < 100 |
| CCNC(=O)c1ccc(-c2cc(NC(=O)Nc3cc(C(C)(C)C)sc3C(=O)N3CCNC(=O)C3(C)C)ccc2C)cn1 | < 100 |
| Cc1ccc(NC(=O)Nc2sc(C(C)(C)C)cc2C(=O)N2CCNC(=O)C2(C)C)cc1C#C[Si](C)(C)C [1-(5-tert-butyl-3-(2,2-dimethyl-3-oxopiperazine-1-carbonyl)thiophen-2-yl)-3-(4-methyl-3-(2-(trimethylsilyl)ethynyl)phenyl)urea] | < 100 |
| Cc1ccc(NC(=O)Nc2cc(C(C)(C)C)sc2C(=O)N2CCN(C)C(=O)C2)cc1-c1ccc(CN2CCOCC2)nc1 [1-(5-tert-butyl-2-(4-methyl-3-oxopiperazine-1-carbonyl)thiophen-3-yl)-3-(4-methyl-3-(6-(morpholinomethyl)pyridin-3-yl)phenyl)urea] | < 100 |
| Cc1ccc(NC(=O)Nc2sc(C(C)(C)C)cc2C(=O)N2CCNC(=O)C2(C)C)cc1-c1ccc(C(C)O)nc1 (stereo not shown) [1-(5-tert-butyl-3-(2,2-dimethyl-3-oxopiperazine-1-carbonyl)thiophen-2-yl)-3-(3-(6-(1-hydroxyethyl)pyridin-3-yl)-4-methylphenyl)urea] | < 100 |
| Cc1ccc(NC(=O)Nc2cn(C(C)(C)C)nc2C(=O)N2CCN(C)C(=O)C2(C)C)cc1-c1ccc(C(C)C)nc1 [1-(1-tert-butyl-3-(2,2,4-trimethyl-3-oxopiperazine-1-carbonyl)-1H-pyrazol-4-yl)-3-(3-(6-isopropylpyridin-3-yl)-4-methylphenyl)urea] | < 100 |
| CCc1ccc(-c2cc(NC(=O)Nc3cn(C(C)(C)C)nc3C(=O)N3CCNC(=O)C3(C)C)ccc2C)cn1 [1-(1-tert-butyl-3-(2,2-dimethyl-3-oxopiperazine-1-carbonyl)-1H-pyrazol-4-yl)-3-(3-(6-ethylpyridin-3-yl)-4-methylphenyl)urea] | < 100 |
| Cc1ccc(NC(=O)Nc2sc(C(C)(C)C)cc2C(=O)N2CCNC(=O)C2(C)C)cc1-c1ccc(N2CCOCC2)cn1 [1-(5-tert-butyl-3-(2,2-dimethyl-3-oxopiperazine-1-carbonyl)thiophen-2-yl)-3-(4-methyl-3-(5-morpholinopyridin-2-yl)phenyl)urea] | < 100 |
| CCc1ccc(-c2cc(NC(=O)Nc3cn(C4(C)CCCC4)nc3C(=O)N3CCNC(=O)C3(C)C)ccc2C)cn1 [1-(3-(2,2-dimethyl-3-oxopiperazine-1-carbonyl)-1-(1-methylcyclopentyl)-1H-pyrazol-4-yl)-3-(3-(6-ethylpyridin-3-yl)-4-methylphenyl)urea] | < 100 |
| COc1ccc(-c2cc(C)cc(NC(=O)Nc3sc(C(C)(C)C)cc3C(=O)N3CCNC(=O)C3(C)C)c2)cn1 [1-(5-tert-butyl-3-(2,2-dimethyl-3-oxopiperazine-1-carbonyl)thiophen-2-yl)-3-(3-(6-methoxypyridin-3-yl)-5-methylphenyl)urea] | < 100 |
| Cc1ccc(NC(=O)Nc2sc(C(C)(C)C)cc2C(=O)N2CCNC(=O)C2(C)C)cc1-c1ccc(OCCCc2ccccn2)nc1 [1-(5-tert-butyl-3-(2,2-dimethyl-3-oxopiperazine-1-carbonyl)thiophen-2-yl)-3-(4-methyl-3-(6-(3-(pyridin-2-yl)propoxy)pyridin-3-yl)phenyl)urea] | < 100 |
| Cc1ccc(NC(=O)Nc2cn(C(C)(C)C)nc2C(=O)N2CCNC(=O)C2(C)C)cc1-c1ccc(CN2CCOCC2)cn1 [1-(1-tert-butyl-3-(2,2-dimethyl-3-oxopiperazine-1-carbonyl)-1H-pyrazol-4-yl)-3-(4-methyl-3-(5-(morpholinomethyl)pyridin-2-yl)phenyl)urea] | < 100 |
| Cc1ccc(NC(=O)Nc2sc(C(C)(C)C)cc2C(=O)N2CCNC(=O)CC2)cc1-c1cnc(N2CCOCC2)nc1 [1-(5-tert-butyl-3-(5-oxo-1,4-diazepane-1-carbonyl)thiophen-2-yl)-3-(4-methyl-3-(2-morpholinopyrimidin-5-yl)phenyl)urea] | < 100 |
| Cc1ccc(NC(=O)Nc2sc(C(C)(C)C)cc2C(=O)N2CCNC(=O)C2(C)C)cc1-c1ccc(CN2CCOCC2)cn1 [1-(5-tert-butyl-3-(2,2-dimethyl-3-oxopiperazine-1-carbonyl)thiophen-2-yl)-3-(4-methyl-3-(5-(morpholinomethyl)pyridin-2-yl)phenyl)urea] | < 100 |
| Cc1ccc(-c2cc(NC(=O)Nc3sc(C(C)(C)C)cc3C(=O)N3CCN(C)C(=O)C3(C)C)ccc2C)cn1 [1-(5-tert-butyl-3-(2,2,4-trimethyl-3-oxopiperazine-1-carbonyl)thiophen-2-yl)-3-(4-methyl-3-(6-methylpyridin-3-yl)phenyl)urea] | < 100 |
| Cc1ccc(NC(=O)Nc2sc(C(C)(C)C)cc2C(=O)N2CCNC(=O)C2(C)C)cc1N1C(=O)CN(C)C1=O [1-(5-tert-butyl-3-(2,2-dimethyl-3-oxopiperazine-1-carbonyl)thiophen-2-yl)-3-(4-methyl-3-(3-methyl-2,5-dioxoimidazolidin-1-yl)phenyl)urea] | < 100 |
| Cc1ccc(NC(=O)Nc2sc(C(C)(C)C)cc2C(=O)N2CCNC(=O)C2(C)C)cc1-c1ccc(CN)nc1 [1-(3-(6-(aminomethyl)pyridin-3-yl)-4-methylphenyl)-3-(5-tert-butyl-3-(2,2-dimethyl-3-oxopiperazine-1-carbonyl)thiophen-2-yl)urea] | < 100 |
